The values that follow come from patent US20240293402A1, “FORMULATION CONTAINING DIHYDROPYRIDAZINE-3,5-DIONE DERIVATIVE (as amended)” (CHUGAI SEIYAKU KABUSHIKI KAISHA, priority 2021, published 2024).

In data set [1] the target is T1, PiT-1 (Homo sapiens, UniProt Q8WUM9).
T1 sequence (Q8WUM9 1-679): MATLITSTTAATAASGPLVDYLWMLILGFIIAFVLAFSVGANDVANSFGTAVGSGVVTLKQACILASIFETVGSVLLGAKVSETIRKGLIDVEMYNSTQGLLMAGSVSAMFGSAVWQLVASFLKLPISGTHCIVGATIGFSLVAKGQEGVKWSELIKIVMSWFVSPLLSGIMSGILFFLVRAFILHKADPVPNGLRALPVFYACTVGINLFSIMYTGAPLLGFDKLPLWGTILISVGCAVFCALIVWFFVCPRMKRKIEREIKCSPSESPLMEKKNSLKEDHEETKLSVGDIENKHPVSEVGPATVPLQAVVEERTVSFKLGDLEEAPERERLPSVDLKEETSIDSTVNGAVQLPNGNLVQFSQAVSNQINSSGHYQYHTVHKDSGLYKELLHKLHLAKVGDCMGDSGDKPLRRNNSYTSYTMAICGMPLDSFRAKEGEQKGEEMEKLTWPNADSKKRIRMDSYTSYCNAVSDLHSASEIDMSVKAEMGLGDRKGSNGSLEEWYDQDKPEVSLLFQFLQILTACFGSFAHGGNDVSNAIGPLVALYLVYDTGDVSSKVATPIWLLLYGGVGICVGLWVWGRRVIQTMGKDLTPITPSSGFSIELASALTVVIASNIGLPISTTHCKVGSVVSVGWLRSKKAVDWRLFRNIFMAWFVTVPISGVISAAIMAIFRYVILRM
Conditions: general statement, reported in Patent Literatures 6 and 7; cited from earlier work.

Data set [2] deals with T2, NaPi-IIb (Homo sapiens, UniProt O95436).
T2 sequence (O95436 1-690): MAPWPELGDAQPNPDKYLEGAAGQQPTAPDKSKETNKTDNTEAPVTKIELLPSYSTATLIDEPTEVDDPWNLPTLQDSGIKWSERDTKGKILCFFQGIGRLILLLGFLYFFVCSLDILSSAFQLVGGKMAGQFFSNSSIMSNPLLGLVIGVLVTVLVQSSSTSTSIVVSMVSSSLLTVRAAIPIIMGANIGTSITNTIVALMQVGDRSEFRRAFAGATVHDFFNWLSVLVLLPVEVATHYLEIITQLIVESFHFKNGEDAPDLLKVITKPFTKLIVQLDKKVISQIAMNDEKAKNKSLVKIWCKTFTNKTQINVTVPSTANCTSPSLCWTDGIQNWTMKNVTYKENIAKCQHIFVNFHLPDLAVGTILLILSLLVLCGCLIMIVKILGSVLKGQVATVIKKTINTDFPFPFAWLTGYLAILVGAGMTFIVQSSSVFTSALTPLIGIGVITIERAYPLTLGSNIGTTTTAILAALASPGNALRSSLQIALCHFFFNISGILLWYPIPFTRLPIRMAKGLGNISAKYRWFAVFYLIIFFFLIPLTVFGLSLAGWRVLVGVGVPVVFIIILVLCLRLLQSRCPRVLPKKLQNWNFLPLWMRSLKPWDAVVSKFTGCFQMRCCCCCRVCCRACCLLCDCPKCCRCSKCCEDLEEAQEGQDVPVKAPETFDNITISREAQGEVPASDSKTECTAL
Particulars: general statement, reported in Patent Literatures 6 and 7; cited from earlier work.

Data set [3] is described as follows: Solubility in water. Format: physicochemical. Particulars: general statement.
The target in data set [4] is T3, PiT-2 (Homo sapiens, UniProt Q08357).
T3 sequence (Q08357 1-652): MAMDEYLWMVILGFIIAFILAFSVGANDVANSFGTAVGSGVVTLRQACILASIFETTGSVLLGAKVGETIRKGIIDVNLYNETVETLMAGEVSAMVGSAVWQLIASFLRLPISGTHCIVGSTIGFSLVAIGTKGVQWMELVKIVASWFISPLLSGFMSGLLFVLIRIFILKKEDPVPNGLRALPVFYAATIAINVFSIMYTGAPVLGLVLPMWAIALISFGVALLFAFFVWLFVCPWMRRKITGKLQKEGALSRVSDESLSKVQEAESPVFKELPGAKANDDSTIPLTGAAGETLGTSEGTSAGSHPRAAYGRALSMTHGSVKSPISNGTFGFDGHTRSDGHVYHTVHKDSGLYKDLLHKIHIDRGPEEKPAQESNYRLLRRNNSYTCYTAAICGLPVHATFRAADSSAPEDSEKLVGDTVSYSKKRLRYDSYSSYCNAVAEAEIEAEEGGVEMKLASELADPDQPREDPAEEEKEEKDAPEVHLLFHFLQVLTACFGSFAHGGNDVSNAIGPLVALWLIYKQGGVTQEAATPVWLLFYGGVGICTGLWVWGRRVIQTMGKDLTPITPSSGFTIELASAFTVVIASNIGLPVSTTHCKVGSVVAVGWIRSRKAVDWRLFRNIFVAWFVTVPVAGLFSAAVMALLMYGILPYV
Particulars: general statement, reported in Patent Literatures 6 and 7; cited from earlier work.

As to `COCCN(C)CCOc1ccc(CN2C(=O)C(C(=O)Nc3ccc(C(F)(F)F)cc3-c3cc(C(F)(F)F)ncn3)=C(O)C3(CCCC3)N2C)c(F)c1F.Cc1ccc(S(=O)(=O)O)cc1` [Compound I, 7-[[2,3-difluoro-4-[2-[2-methoxyethyl(methyl)amino]ethoxy]phenyl]methyl]-10-hydroxy-6-methyl-8-oxo-N-[4-(trifluoromethyl)-2-[6-(trifluoromethyl)pyrimidin-4-yl]phenyl]-6,7-diazaspiro[4,5]deca-9-ene-9-carboxamide], the “inhibitory action on PiT-1” value in data set [1] was “strong inhibitory action”. In data set [2], the “inhibitory action on NaPi-IIb” value was “strong inhibitory action”. In addition, the solubility in water entry in data set [3] was “hardly soluble in water”. Also, the “inhibitory action on PiT-2” value in data set [4] is on record as “strong inhibitory action”.
